Experimental findings from ChEMBL document CHEMBL1201862, “PubChem BioAssay data set” (2004) are described below.

Active and inactive are the calls of the source.

In one assay the target is Bcl-2-like protein 10 (Homo sapiens, UniProt Q9HD36). Description: Bcl-B/TR3 peptide binding disruption – biochemical, fluorescence polarization, FITC-TR3 peptide, selectivity assay for Bfl-1 inhibitor project, primary screen (AID 748). (Fluorescence polarisation rises when a labelled molecule tumbles more slowly, as on binding a larger partner.)
Assay [1] addresses T1, Heat shock factor protein 1 (Mus musculus, UniProt P38532).
T1 sequence (P38532 whole entry): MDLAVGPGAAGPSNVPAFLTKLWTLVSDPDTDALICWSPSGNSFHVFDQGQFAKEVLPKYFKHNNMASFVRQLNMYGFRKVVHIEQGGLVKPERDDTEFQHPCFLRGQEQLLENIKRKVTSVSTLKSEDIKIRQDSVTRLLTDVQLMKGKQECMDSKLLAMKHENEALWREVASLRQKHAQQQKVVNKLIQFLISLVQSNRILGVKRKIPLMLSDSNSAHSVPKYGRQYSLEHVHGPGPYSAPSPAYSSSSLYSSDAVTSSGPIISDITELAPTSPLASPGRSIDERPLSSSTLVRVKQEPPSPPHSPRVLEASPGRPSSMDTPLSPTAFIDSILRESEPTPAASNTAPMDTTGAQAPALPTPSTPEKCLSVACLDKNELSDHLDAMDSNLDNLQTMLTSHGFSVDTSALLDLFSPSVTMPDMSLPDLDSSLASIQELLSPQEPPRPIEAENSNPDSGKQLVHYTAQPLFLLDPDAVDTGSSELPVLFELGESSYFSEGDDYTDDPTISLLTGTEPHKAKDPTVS
Description: enhancement of HSF1-driven luciferase signal – cell-based, NIH3T3, luminescence, dose retest, confirmation (AID 435004).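 Note: stress induced by proteasome inhibitor MG132 added 30 min after compound; luciferase reporter driven by HSF1 response element in NIH3T3 cells; actives raise luminescence as potentiators of the MG132 stress response.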 The class given is functional.

Assay [2] in a line: HEK-293T cell viability reduction – luminescence, B-cell screen hits, cytotoxicity control for BCR NF-kB inhibitor project, dose response (AID 489021).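 Note: HEK-293T cells carrying an NF-kB luciferase reporter; cells exposed to compound for about 14 hours before viability readout.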 The class given is functional, cell-based.
The target of assay [3] is Intestinal-type alkaline phosphatase (Homo sapiens, UniProt P09923). Description: activation of human intestinal alkaline phosphatase – biochemical, dose response (AID 488873). The class given is functional.
Assay [4] addresses Intestinal-type alkaline phosphatase (Mus musculus, UniProt P24822). The assay can be described thus: PubChem AID 488785. The class given is functional.
Assay [5] deals with FAD-linked sulfhydryl oxidase ALR (Homo sapiens, UniProt P55789). Description: ALR-catalysed DTT oxidation blockers – biochemical, H2O2 detection, luminescence, cherry-pick, dose response (AID 493248).
For assay [6], the target named is T2, Alkaline phosphatase, tissue-nonspecific isozyme (Homo sapiens, UniProt P05186).
T2 sequence (P05186 whole entry): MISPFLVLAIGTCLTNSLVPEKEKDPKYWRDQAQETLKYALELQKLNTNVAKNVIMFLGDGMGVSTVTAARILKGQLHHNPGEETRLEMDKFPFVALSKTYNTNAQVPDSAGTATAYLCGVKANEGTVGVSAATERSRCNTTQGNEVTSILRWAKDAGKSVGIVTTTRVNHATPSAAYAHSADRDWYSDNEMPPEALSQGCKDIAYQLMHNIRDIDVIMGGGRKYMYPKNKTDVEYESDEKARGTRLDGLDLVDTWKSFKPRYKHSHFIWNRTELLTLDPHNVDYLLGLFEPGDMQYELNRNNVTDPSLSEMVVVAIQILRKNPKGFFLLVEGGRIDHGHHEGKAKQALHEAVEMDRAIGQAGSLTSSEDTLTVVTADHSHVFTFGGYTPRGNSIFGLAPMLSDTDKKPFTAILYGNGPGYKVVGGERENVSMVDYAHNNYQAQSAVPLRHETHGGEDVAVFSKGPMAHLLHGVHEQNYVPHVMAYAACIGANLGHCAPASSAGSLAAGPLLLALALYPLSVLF
The assay can be described thus: TNAP enzyme inhibition by screening hits, dose response, selectivity assay for mouse IAP inhibitor project, biochemical, human TNAP, uHTS hits (AID 488906). The class given is functional.

Assay [7] is described as follows: luciferase reporter signal suppression in cells – H4 neuroglioma cells, luminescence, dose response (AID 1990). Type of assay: functional, cell-based. For orientation: A reporter such as luciferase makes a cellular process visible.
Assay [8] can be described thus: luciferase reporter signal reduction – luminescence, H4-C neuroglioblastoma cells, dose response (AID 2458).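 Note: H4 neuroglioblastoma cells stably carrying a luciferase reporter gene fusion.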 The class given is functional, cell-based.
The subject of assay [9] is Streptococcus sp. 'group A'. The assay can be described thus: Streptococcus pyogenes SK(-)GAS viability under kanamycin – luminescence, BacTiterGlo, confirmation, counter-screen for streptokinase expression inhibitor project, dose response (AID 1900). Type of assay: functional, organism-based. A general note: A counterscreen serves to expose hits that act by an unwanted route or on another target.

The next assay in a line: cells. The class given is functional, cell-based.
Assay [10] is described as follows: Luminescence Cell-Based Dose Response HTS to Identify Inhibitors of 5'UTR Stem-Loop Driven Prion Protein mRNA Translation in H4 Neuroglioblastoma Cells. [Related pubchem assays: 1827 (Project Summary), 1813 (Primary HTS)]. Type of assay: functional.
Assay [11] in a line: alpha-synuclein stem-loop luciferase translation blockers – H4 neuroglioma cells, luminescence, confirmation (AID 1988). Type of assay: functional, cell-based.
Assay [12] deals with T3, Kappa-type opioid receptor (Homo sapiens, UniProt P41145). Type of assay: functional.
The target in a further assay is Beta-galactosidase (Escherichia coli, UniProt Q8VNN2). Type of assay: functional.
The target in assay [13] is T3, Kappa-type opioid receptor. The class given is functional. This is another data set of the same source.
A further assay relates to Streptococcus. Description: GAS UMAA2166 growth inhibition – luminescence, BacTiterGlo, counter-screen for streptokinase expression inhibitor project, dose response (AID 1915).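 Note: potency for reduction of bacterial viability or growth.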 The class given is functional, organism-based.
Assay [14] can be described thus: alpha-synuclein stem-loop translation blockers – luminescence, H4 neuroglioblastoma cells, dose confirmation, confirmation (AID 2454).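 Note: H4 neuroglioblastoma cells carrying an alpha-synuclein 5'UTR luciferase reporter; potency for inhibition of the luciferase signal.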 The class given is functional, cell-based.
The target in assay [15] is Heat shock protein HSP 90-alpha (Homo sapiens, UniProt P07900). The class given is functional, organism-based.
Another assay relates to INS1. Description: INS-1E survival protection against cytokine death – cell-based, luminescence, retest, dose response (AID 449756).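 Note: cell death triggered by IL-1 beta plus TNF-alpha plus IFN-gamma mixture; protective hits raise ATP signal compared with cytokine alone wells.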 The class given is functional. The settings on record: Rattus norvegicus.
Another assay deals with Vero. The assay can be described thus: cells. Particulars: Chlorocebus sabaeus. Type of assay: functional.
The next assay addresses T4, Hexokinase HKDC1 (Homo sapiens, UniProt Q2TB90).
T4 sequence (Q2TB90 whole entry): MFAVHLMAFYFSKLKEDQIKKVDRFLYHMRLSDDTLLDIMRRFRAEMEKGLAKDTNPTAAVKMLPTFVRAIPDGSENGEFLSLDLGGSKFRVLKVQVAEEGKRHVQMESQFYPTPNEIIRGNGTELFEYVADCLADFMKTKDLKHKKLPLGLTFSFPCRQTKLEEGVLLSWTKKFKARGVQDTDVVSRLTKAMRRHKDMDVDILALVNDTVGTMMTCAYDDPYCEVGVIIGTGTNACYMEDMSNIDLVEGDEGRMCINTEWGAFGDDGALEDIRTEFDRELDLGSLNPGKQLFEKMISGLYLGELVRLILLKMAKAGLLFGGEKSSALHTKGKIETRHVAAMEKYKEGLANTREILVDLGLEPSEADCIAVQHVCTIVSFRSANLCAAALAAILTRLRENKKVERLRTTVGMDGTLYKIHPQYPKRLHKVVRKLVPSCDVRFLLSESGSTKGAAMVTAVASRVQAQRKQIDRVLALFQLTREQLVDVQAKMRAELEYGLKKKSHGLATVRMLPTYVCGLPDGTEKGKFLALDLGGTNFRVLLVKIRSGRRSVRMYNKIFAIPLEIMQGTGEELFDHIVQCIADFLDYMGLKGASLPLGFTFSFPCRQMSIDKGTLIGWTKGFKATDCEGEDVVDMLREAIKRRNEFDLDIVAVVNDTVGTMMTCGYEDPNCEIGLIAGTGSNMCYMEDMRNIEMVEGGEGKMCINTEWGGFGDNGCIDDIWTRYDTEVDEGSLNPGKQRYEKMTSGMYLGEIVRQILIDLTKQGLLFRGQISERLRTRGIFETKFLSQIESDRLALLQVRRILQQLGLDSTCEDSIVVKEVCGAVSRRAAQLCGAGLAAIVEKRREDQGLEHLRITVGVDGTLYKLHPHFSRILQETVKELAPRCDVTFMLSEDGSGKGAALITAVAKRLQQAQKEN
Description: activation of HKDC1 glucose phosphorylation – biochemical, W721R variant, dose response (AID 504730). The class given is functional.

For assay [16], the target named is Lysosomal acid glucosylceramidase (Homo sapiens, UniProt P04062). The assay can be described thus: Dose response cell-based high throughput screening assay to identify enhancers of beta-glucosidase activity. [Related pubchem assays: 784 ]. The class given is functional.
In assay [17] the target is T5, Sphingosine 1-phosphate receptor 4 (Homo sapiens, UniProt O95977).
T5 sequence (O95977 whole entry): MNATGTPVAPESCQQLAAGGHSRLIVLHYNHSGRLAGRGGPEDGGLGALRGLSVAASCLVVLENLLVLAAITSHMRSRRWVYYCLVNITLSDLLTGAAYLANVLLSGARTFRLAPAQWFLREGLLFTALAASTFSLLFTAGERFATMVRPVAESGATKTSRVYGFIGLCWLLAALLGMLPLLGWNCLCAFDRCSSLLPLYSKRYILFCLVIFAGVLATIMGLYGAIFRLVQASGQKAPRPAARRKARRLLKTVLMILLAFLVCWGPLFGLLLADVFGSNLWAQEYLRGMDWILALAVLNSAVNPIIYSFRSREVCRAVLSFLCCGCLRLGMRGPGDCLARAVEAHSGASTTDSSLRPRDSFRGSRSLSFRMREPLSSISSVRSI
Description: Late-stage fluorescence dose response cell-based assay to identify agonists of the Sphingosine 1-Phosphate Receptor 4 (S1P4): purchased compounds EC50. [Related pubchem assays (depositor defined):AID1509, AID1523, AID1563, AID1686, AID1701, AID1801]. The class given is functional.

For another assay, the target named is Hexokinase (Trypanosoma brucei, UniProt Q38C41). Description: Confirmation assay for inhibitors of Trypanosoma brucei hexokinase 1-Analogue-first series. [Related pubchem assays (depositor defined):AID1430, AID1632, AID2516, AID2560, AID2579, AID2600, AID449725, AID492951]. The class given is functional.
In assay [18] the target is T6, Type-1 angiotensin II receptor (Homo sapiens, UniProt P30556).
T6 sequence (P30556 whole entry): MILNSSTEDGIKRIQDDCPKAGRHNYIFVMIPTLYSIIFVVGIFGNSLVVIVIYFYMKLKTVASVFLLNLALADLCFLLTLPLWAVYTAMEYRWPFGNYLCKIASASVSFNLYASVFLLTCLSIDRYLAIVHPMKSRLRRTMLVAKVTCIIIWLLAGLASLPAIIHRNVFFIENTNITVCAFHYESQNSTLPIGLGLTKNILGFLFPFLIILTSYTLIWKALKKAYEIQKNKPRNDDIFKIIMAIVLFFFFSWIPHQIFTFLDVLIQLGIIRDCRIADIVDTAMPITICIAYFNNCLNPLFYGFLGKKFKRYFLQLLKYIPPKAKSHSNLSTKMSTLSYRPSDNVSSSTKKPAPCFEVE
The assay can be described thus: agonist activity at AGTR1 – cell-based, uHTS hits, selectivity assay for APJ receptor agonist project, dose response (AID 488865).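 Note: beta-arrestin recruitment to AT1 measured by enzyme fragment complementation luminescence.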 The class given is functional.

T3 sequence (P41145 whole entry): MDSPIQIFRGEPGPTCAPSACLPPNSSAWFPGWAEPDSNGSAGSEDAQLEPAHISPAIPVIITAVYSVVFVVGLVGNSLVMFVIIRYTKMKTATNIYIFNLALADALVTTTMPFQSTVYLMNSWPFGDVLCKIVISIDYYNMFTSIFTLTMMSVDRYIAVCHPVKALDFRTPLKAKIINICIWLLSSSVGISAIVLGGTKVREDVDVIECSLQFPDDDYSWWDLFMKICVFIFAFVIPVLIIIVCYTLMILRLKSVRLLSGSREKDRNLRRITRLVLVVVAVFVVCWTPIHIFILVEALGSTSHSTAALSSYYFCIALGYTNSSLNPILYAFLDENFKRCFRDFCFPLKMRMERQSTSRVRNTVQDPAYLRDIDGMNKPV
Sequence of Lysosomal acid glucosylceramidase (P04062 whole entry): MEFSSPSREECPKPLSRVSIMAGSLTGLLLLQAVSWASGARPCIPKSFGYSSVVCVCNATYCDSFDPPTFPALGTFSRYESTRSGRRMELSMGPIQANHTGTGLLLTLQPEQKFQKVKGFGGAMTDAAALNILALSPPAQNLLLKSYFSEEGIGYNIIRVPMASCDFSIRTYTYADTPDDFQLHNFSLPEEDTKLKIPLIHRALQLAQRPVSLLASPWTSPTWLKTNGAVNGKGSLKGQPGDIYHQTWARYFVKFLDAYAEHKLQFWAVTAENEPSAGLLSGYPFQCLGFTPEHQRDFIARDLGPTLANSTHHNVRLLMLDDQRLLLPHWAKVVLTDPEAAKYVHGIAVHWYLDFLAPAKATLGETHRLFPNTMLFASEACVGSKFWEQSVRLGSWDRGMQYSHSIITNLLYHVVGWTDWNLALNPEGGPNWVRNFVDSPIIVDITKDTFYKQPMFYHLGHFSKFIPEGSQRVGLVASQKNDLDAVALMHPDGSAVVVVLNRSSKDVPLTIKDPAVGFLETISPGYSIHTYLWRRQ
Sequence of Hexokinase (Q38C41 whole entry): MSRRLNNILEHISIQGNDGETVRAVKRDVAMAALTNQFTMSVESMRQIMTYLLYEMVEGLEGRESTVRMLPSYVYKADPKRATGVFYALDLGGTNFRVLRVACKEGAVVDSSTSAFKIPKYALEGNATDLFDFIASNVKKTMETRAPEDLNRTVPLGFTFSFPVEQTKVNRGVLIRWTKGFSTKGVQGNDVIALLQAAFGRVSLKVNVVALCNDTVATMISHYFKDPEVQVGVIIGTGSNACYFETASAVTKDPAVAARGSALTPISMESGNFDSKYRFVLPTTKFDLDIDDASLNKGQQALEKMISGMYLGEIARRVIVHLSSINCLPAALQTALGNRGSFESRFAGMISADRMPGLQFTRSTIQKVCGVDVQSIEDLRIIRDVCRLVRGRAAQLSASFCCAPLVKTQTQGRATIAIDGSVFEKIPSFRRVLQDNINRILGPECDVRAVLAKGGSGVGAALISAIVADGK
Sequence of Beta-galactosidase (Q8VNN2 whole entry): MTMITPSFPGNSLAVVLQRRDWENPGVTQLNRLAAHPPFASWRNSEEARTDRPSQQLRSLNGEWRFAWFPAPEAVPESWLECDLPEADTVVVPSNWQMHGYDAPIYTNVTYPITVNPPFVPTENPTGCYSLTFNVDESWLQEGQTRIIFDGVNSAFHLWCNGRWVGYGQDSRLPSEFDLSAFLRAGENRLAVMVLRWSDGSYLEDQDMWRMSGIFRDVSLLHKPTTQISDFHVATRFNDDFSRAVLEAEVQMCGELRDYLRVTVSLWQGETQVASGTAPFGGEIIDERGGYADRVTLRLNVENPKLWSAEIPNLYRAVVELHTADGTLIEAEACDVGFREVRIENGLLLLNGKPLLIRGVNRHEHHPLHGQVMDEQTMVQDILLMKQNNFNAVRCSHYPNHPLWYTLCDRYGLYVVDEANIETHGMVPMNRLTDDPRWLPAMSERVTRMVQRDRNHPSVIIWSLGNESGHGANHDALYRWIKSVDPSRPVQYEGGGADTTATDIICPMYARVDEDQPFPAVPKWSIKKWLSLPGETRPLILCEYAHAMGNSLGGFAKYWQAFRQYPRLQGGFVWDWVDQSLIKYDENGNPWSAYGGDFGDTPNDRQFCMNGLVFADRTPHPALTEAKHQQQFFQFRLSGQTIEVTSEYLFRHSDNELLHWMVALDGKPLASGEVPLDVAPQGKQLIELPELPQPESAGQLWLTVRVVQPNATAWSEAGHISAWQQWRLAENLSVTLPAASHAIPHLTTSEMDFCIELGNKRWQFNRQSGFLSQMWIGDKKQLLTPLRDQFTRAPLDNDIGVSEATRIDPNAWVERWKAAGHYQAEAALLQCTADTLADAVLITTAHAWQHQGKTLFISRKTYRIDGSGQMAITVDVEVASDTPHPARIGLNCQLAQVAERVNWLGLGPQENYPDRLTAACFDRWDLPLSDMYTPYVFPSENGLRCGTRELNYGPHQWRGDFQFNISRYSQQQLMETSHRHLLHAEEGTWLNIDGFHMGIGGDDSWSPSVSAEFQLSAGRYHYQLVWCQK
Sequence of FAD-linked sulfhydryl oxidase ALR (P55789 whole entry): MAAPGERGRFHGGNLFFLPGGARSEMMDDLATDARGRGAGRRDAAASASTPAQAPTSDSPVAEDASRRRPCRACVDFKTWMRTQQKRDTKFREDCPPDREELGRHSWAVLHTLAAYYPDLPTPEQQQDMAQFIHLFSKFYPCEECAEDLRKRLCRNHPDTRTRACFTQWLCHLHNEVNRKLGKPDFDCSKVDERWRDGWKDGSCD
Sequence of Intestinal-type alkaline phosphatase (Mus musculus, UniProt P24822) (P24822 whole entry): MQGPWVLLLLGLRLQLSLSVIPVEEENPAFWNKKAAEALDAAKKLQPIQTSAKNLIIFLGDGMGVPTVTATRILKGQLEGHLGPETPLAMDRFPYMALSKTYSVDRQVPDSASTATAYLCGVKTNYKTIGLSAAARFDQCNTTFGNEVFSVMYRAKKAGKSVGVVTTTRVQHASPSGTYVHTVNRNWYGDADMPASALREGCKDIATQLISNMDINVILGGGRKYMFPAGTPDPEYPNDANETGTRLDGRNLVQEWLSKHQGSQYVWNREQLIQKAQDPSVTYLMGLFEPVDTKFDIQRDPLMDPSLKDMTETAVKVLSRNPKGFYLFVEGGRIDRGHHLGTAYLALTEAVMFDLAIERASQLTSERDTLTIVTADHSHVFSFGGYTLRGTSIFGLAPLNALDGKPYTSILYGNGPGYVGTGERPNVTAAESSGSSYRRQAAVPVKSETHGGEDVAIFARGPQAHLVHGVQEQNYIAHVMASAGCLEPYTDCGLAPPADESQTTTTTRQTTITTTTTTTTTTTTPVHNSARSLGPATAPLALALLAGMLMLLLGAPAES
Sequence of Intestinal-type alkaline phosphatase (Homo sapiens, UniProt P09923) (P09923 whole entry): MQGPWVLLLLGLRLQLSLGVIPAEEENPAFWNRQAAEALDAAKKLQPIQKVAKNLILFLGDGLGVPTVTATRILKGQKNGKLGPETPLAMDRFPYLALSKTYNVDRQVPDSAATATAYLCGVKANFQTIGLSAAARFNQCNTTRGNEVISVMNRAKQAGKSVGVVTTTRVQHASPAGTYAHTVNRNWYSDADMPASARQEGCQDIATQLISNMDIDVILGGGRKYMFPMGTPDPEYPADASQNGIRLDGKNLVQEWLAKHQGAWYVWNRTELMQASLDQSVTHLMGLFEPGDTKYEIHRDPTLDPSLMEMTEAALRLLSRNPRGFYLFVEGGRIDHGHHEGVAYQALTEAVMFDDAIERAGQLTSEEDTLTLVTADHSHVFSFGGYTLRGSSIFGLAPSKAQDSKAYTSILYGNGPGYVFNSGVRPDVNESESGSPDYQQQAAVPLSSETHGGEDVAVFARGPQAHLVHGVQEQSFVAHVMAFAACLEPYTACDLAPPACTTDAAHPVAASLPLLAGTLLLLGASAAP
Sequence of Bcl-2-like protein 10 (Q9HD36 whole entry): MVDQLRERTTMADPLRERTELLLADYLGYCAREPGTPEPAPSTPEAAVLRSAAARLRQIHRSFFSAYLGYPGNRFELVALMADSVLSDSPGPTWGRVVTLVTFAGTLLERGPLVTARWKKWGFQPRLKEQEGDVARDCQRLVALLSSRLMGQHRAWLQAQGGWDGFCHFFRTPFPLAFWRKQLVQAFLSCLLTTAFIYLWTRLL

For the compound `Cc1ccc(OCCC(=O)OCC(=O)Nc2ccc(Cl)cn2)cc1`, the IC50 at Bcl-2-like protein 10 is 72.8 µM (inactive).
`COc1ccc(C(=O)n2nc(-c3ccc(Cl)cc3)nc2N)cc1OC`: the EC50 in assay [1] was > 260 µM (inconclusive). In assay [2], the IC50 is > 80 µM (inactive).
With `Cc1ccc(C)c(S(=O)(=O)Nc2ccc(O)c(Sc3nnc[nH]3)c2)c1`, the EC50 in [3] was 11.9 µM (active). Besides, the IC50 in assay [4] was 2.75 µM (active); in assay [6], 5.46 µM (active). In assay [5], the AC50 was 2.05 µM (active).
Regarding `COc1ccc(N=Nc2ccc(O)c3ncccc23)cc1`, the EC50 was 8.21 µM (active) in assay [7]; > 12 µM (not active) in assay [8]; 0.191 µM (active) in [9]; 1.65 µM (active) in “cells”; 6.71 µM (active) in [10]; < 0.1 µM (active) in [11]. Also, the EC50 on Beta-galactosidase is 24.6 µM (active); with Streptococcus, 2.5 µM (active); in assay [14], > 12 µM (not active). Further, the IC50 is 5.64 µM (active) in assay [12] and above 32 µM in assay [13]. Also, the AC50 was 3.34 µM (active) in assay [15] and 1.16 µM (active) with INS1. Moreover, the CC50 with Vero was 6.3 µM (active).
Regarding `O=Cc1cn(Cc2ccc([N+](=O)[O-])cc2)c2ccccc12`, the EC50 in assay [7] was 5.79 µM (active); in assay [8], 1.25 µM (active); in “cells”, 0.466 µM (active); in [10] it was < 0.1 µM (active); in assay [11], 0.233 µM (active); in assay [14] it was 1.02 µM (active).
As for `COc1ccc(-c2nn(C)c(=O)c3ccccc23)cc1NS(C)(=O)=O`, the IC50 in [2] is > 80 µM (inactive).
As to `Cc1cc(Oc2ccc(C(C)(C)C)cc2)nc(N2CCOCC2)n1`, at Hexokinase HKDC1, the EC50 is > 80 µM (inactive).
Take `CCCc1cc(O)nc(SCC(=O)CSc2nc(O)cc(CCC)n2)n1`: the EC50 in [16] is reported as > 50 µM (not active).
For `Cc1ccc(OC(C)C(=O)Nc2cc(Cl)ccc2Cl)c([N+](=O)[O-])n1` (stereo unspecified), the EC50 in assay [17] is > 50 µM (inactive).
Consider `Cc1cc(C)cc(OCCOc2ccc(C)nc2[N+](=O)[O-])c1`, for which, in [17], the EC50 was > 50 µM (inactive).
Consider `O=c1c2cc(F)c(F)cc2sn1-c1ccccc1`, for which the IC50 at Hexokinase is 2.23 µM (active).
Consider `O=C(Cn1ncc2c3ccccc3nc-2c1O)Nc1ccc(CN2CCCCC2)cc1`, for which the EC50 in assay [18] is > 100 µM (inactive).
`CCc1ccc(C(=O)Nc2cc(Cl)ccc2C(=O)OC)cc1`: the IC50 on Hexokinase is > 25 µM (inactive).
Turning to `C/N=C1/SC(CC(=O)Nc2cccc(C(F)(F)F)c2)C(=O)N1C` (stereo unspecified), the 50% effective concentration (EC50) in [16] is recorded as > 50 µM (not active).

As a reminder, the IC50 is the concentration needed to halve the response being measured. The term EC50 denotes the concentration needed to bring the measured effect to its halfway point. The term AC50 denotes the midpoint of the concentration-response curve, whichever way the signal moves. By CC50 is commonly meant the concentration giving 50% cytotoxicity.
